# Literature values, collected in patent US12447174B2, “Microdaily EMF protects against oxidative and inflammatory damage, and acute and late adverse effects of EMF radiation” (priority 2021, dated 2025).
# “Also recorded” adds a separate entry of the source.
# How the values were obtained:
# [1] = tested on: Human embryonic kidney cells (HEK293); conditions: HEK293, 2.4 GHz for 1 h, treatment before exposure
# [2] = tested on: rats exposed to 900 MHz radiation; conditions: compared to EMF irradiated animals not receiving luteolin
# hippocampus of rats = conditions: prenatal exposure to 900 MHz EMF radiation
# rats = conditions: EMF radiation emitted from mobile phones, supplementation
# N9 microglia cells = N9 microglia cells in culture
# kidney of rats = conditions: 900 MHz
# [3] = tested on: hippocampus and cerebellum of rats; conditions: RF-EMF 900 MHz 60 min/day for 21 days
# [4] = tested on: microglia cells in culture
# [5] = tested on: workers chronically exposed to ELF-EMF radiation from high voltage electricity
# male heavy smokers = conditions: beta-carotene alone
# porcine blood platelets = conditions: 1 KHz, 220 V/m, 30 and 60 minutes
# heart disease = conditions: humans
# [6] = tested on: patients with Alzheimer's disease
compound,measurement,setting,value
[Se] [selenium],"EMF radiation-induced biochemical changes (MDA, SOD, glutathione peroxidase, apoptosis, caspase-3, Bcl2)",[1],reduced such EMF radiation-induced biochemical changes
O=c1cc(-c2ccc(O)c(O)c2)oc2cc(O)cc(O)c12 [luteolin],"numbers of Leydig cells, primary spermatocytes, and spermatids",[2],enhanced the number of these cells
omega-3-fatty acids,EMF radiation-induced neuronal damage in the hippocampus,hippocampus of rats,prevented EMF radiation-induced neuronal damage
vitamin D,EMF radiation impaired immune function,rats,mitigated
CC(C)(C)c1nc2c3cc[nH]c(=O)c3c3cc(F)ccc3c2[nH]1 [pyridone 6],EMF radiation induced inflammatory responses,N9 microglia cells,suppressed EMF radiation induced inflammatory responses
COc1ccc2[nH]cc(CCNC(C)=O)c2c1 [melatonin],EMF radiation-induced neuronal damage in the hippocampus,hippocampus of rats,prevented EMF radiation-induced neuronal damage
same,EMF radiation induced oxidative damage in the kidney,kidney of rats,prevented
Nc1nc2ncc(CNc3ccc(C(=O)N[C@@H](CCC(=O)O)C(=O)O)cc3)nc2c(=O)[nH]1 [folic acid],reduction in pyramidal and granular cells in hippocampus and dentate gyres and Purkinje cell number in cerebellum,[3],decreased these changes
COc1cc(/C=C/C(=O)CC(=O)/C=C/c2ccc(O)c(OC)c2)ccc1O [Curcumin],EMF-induced elevation of pro-inflammatory cytokines,[4],prevented
same,EMF-induced reduced phagocytic activity,[4],prevented
Oc1ccc(C=Cc2cc(O)cc(O)c2)cc1 [resveratrol],increased oxidative stress (damage) from ELF-EMF radiation,[5],reduced this damage
CC1=C(/C=C/C(C)=C/C=C/C(C)=C/C=C/C=C(C)/C=C/C=C(C)/C=C/C2=C(C)CCCC2(C)C)C(C)(C)CCC1 [beta-carotene],risk of lung cancer,male heavy smokers,increased the risk of lung cancer
vitamin A,EMF-induced increase in malondialdehyde (MDA) levels,porcine blood platelets,significantly attenuated such changes; also recorded: significantly attenuated this damage
Vitamin E,effect in heart disease on primary and most secondary outcomes,heart disease,ineffective
same,rate of decline in cognitive function,[6]; early phase of Alzheimer's disease,reduced the rate of decline in cognitive function
same,treatment effect in Alzheimer's disease,[6]; patients with Alzheimer's disease,ineffective
